For one assay, the target named is MAP4K1 (Homo sapiens, UniProt Q92918). In words: MAP4K1 binding competition assay (TR-FRET, Tracer 222). On the technique in general: Time-resolved FRET reads energy transfer from a long-lived donor to a nearby acceptor.
The target of another assay is T1, human TBK1 (Homo sapiens, UniProt Q9UHD2).
T1 construct: Recombinant full-length N-terminally His-tagged human TBK1; His (N); purchased Life Technologies PR5618B; host or cells: insect cells
T1 sequence (Q9UHD2 1-729): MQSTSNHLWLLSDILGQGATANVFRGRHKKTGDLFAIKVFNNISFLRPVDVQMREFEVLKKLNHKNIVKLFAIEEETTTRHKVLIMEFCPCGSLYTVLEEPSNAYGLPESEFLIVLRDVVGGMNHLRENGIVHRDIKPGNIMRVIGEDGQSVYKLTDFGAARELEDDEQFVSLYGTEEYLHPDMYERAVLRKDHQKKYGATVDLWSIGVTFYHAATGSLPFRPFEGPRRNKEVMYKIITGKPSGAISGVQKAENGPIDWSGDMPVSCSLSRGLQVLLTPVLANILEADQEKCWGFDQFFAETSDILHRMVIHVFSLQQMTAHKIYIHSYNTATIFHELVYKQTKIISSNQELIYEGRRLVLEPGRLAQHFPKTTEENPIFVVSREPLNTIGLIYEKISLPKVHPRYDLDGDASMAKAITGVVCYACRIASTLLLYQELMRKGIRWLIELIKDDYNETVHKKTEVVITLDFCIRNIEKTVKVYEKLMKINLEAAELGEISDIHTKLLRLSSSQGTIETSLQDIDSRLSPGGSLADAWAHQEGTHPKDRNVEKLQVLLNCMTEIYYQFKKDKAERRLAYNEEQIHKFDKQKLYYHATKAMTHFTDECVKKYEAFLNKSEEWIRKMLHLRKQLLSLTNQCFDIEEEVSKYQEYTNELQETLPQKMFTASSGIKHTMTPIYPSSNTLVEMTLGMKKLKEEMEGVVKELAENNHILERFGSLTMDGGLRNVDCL
In words: TBK1 high ATP kinase assay (TR-FRET). The assay is classed as biochemical. Conditions: 1 mM ATP, selectivity assay, 15 min preincubation. How it is done:
TBK1 High ATP Kinase Assay
TBK1-inhibitory activity of compounds of the present invention at a high ATP concentration after preincubation of enzyme and test compounds was quantified employing the TR-FRET-based TBK1 assay as described in the following paragraphs.
Recombinant full-length N-terminally His-tagged human TBK1, expressed in insect cells and purified by Ni-NTA affinity chromatography, was purchased from Life Technologies (Cat. No PR5618B) and used as enzyme. As substrate for the kinase reaction biotinylated peptide biotin-Ahx-[…] (C-terminus in amide form) was used which can be purchased e.g. form the company Biosyntan (Berlin-Buch, Germany).
The concentration of TBK1 was adjusted depending of the activity of the enzyme lot and was chosen appropriate to have the assay in the linear range, typical concentrations were in the range of 0.002-0.004 μg/mL. The reaction was stopped by the addition of 3 μL of a solution of TR-FRET detection reagents (0.33 μM streptavidine-XL665 [Cisbio Bioassays, Codolet, France], 2.5 nM anti-phosho-Serine antibody [Merck Millipore, “STK antibody”, cat. #35-002] and 1.25 nM LANCE EU-W1024 labeled anti-mouse IgG antibody [Perkin-Elmer, product no. AD0077]) in an aqueous EDTA-solution (167 mM EDTA, 0.13% (w/v) bovine serum albumin in 100 mM HEPES/NaOH pH 7.5).

For a further assay, the target named is T2, human ROCK-II (Homo sapiens, UniProt O75116).
T2 construct: human ROCK-II (amino acids 11-552); His6 (N); purchased Eurofins 14-451-K; host or cells: baculovirus infected SF21 insect cells
T2 sequence (O75116 11-552): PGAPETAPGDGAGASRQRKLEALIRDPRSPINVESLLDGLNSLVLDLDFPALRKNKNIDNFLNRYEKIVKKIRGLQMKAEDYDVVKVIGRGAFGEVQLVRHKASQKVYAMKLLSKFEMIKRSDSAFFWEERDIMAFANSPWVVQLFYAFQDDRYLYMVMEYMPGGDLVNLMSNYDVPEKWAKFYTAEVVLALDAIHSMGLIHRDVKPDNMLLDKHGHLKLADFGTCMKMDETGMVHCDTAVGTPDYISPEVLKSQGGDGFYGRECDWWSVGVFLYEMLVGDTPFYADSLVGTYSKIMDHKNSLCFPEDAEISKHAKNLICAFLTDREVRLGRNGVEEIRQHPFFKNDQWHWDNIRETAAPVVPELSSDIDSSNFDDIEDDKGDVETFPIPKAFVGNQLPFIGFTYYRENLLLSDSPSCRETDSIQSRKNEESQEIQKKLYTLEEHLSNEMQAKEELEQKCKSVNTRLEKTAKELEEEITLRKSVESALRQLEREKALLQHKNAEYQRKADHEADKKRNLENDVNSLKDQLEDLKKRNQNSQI
In words: ROCK-II kinase assay (ADP-Glo). It counts as biochemical. The conditions noted are these: 10 μM ATP, 15 min preincubation, 30 min at 22° C. The method, then: ROCK-II-inhibitory activity of compounds of the present invention was quantified employing the ROCK-II assay as described in the following paragraphs. In essence, the enzyme activity is measured by quantification of the adenosine-di-phosphate (ADP), which is generated as a co-product of the enzyme reaction, via the “ADP-Glo™ Kinase Assay” kit from the company Promega. This detection system works as follows: In a first step the adenosine-tri-phosphate (ATP) not consumed in the kinase reaction is quantitatively converted to cAMP employing an adenylate cyclase (“ADP-Glo-reagent”), then the adenylate cyclase is stopped and the ADP generated in the kinase reaction converted to ATP which generates in a luciferase-based reaction a glow-luminescence signal (“Kinase Detection Reagent”).
As substrate for the kinase reaction the biotinylated peptide biotin-Ahx-[…] (C-terminus in amide form) was used which can be purchased e.g. from the company Biosyntan (Berlin-Buch, Germany).
The concentration of ROCK-II was adjusted depending of the activity of the enzyme lot and was chosen appropriate to have the assay in the linear range, a typical concentration is about 5 nM. The reaction was stopped by the addition of 2.5 μl of “ADP-Glo-reagent” (1:1, 5 fold diluted) and the resulting mixture was incubated at 22° C. for 1 h to convert the ATP not consumed in the kinase reaction completely to cAMP. […] The amount of emitted light was taken as a measure for the amount of ADP generated and thereby for the activity of the ROCK-II.
In general terms: In ADP-Glo the light output rises with the ADP produced.

Sequence of MAP4K1 (Q92918 whole entry): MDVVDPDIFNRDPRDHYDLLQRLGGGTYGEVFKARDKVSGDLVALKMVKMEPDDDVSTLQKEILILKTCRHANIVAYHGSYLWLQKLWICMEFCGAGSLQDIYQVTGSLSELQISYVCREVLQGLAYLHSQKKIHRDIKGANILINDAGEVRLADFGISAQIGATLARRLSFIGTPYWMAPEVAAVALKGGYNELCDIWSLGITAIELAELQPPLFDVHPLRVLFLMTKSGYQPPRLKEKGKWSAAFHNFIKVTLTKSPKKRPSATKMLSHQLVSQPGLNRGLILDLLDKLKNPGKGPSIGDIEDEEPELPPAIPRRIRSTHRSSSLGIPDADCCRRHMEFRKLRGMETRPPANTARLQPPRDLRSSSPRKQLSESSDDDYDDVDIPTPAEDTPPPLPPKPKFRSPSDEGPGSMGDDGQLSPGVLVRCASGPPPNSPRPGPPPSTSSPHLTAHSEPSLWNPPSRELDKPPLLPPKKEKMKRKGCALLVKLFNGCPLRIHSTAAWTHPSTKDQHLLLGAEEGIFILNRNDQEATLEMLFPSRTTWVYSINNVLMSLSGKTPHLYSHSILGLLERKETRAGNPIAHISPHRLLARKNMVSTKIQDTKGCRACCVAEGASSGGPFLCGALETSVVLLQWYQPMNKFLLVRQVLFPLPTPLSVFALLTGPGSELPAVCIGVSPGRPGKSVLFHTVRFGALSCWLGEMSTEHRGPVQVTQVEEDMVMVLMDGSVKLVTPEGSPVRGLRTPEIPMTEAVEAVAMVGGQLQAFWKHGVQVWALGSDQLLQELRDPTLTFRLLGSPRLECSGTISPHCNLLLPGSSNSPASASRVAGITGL

As a reminder, the IC50 is the concentration that gives 50% inhibition. Low values mean higher potency, high ones lower potency. `Fc1cc(NC2=NCC3(COC3)CO2)cc(F)c1Oc1ccnc2[nH]cc(C3(C(F)(F)F)CCC3)c12` [Example 14, N-[3,5-difluoro-4-({3-[1-(trifluoromethyl)cyclobutyl]-1H-pyrrolo[2,3-b]pyridin-4-yl}oxy)phenyl]-2,6-dioxa-8-azaspiro[3.5]non-7-en-7-amine]: the values for the IC50 at MAP4K1, against human TBK1 and against human ROCK-II were 6.9 nM, more than 20000 nM and 1300 nM, respectively.
Regarding `Fc1cc(NC2=NCC3(CC3)CO2)cc(F)c1Oc1ccnc2[nH]cc(C3(C(F)(F)F)CC3)c12` [Example 10, N-[3,5-difluoro-4-({3-[1-(trifluoromethyl)cyclopropyl]-1H-pyrrolo[2,3-b]pyridin-4-yl}oxy)phenyl]-5-oxa-7-azaspiro[2.5]oct-6-en-6-amine], on human TBK1, the half-inhibitory concentration (IC50) was more than 20000 nM.
On human TBK1, `Fc1cc(NC2=NCC3(CCOCC3)CO2)cc(F)c1Oc1ccnc2[nH]cc(C3(C(F)(F)F)CC3)c12` [Example 11, N-[3,5-difluoro-4-({3-[1-(trifluoromethyl)cyclopropyl]-1H-pyrrolo[2,3-b]pyridin-4-yl}oxy)phenyl]-2,9-dioxa-4-azaspiro[5.5]undec-3-en-3-amine] came in with an IC50 of more than 20000 nM.
`Fc1cc(NC2=NCC3(CCOC3)CO2)cc(F)c1Oc1ccnc2[nH]cc(C3(C(F)(F)F)CCC3)c12` (racemic) [Example 13, (+/−)-N-[3,5-difluoro-4-({3-[1-(trifluoromethyl)cyclobutyl]-1H-pyrrolo[2,3-b]pyridin-4-yl}oxy)phenyl]-2,7-dioxa-9-azaspiro[4.5]dec-8-en-8-amine]: the IC50 was 6.2 nM at MAP4K1, more than 20000 nM on human TBK1 and 1200 nM on human ROCK-II.
`Fc1cc(NC2=NCC3(CCOC3)CO2)cc(F)c1Oc1ccnc2[nH]cc(C3(C(F)(F)F)CC3)c12` (racemic) [Example 5, (+/−)-N-[3,5-difluoro-4-({3-[1-(trifluoromethyl)cyclopropyl]-1H-pyrrolo[2,3-b]pyridin-4-yl}oxy)phenyl]-2,7-dioxa-9-azaspiro[4.5]dec-8-en-8-amine] gave a half-maximal inhibitory concentration (IC50) on human TBK1 of more than 20000 nM.
`Fc1cc(NC2=NCC3(CCOC3)CO2)cc(F)c1Oc1ccnc2[nH]cc(C3(C(F)(F)F)CC3)c12` (single isomer, unassigned; enantiomer 1) [Example 6, N-[3,5-difluoro-4-({3-[1-(trifluoromethyl)cyclopropyl]-1H-pyrrolo[2,3-b]pyridin-4-yl}oxy)phenyl]-2,7-dioxa-9-azaspiro[4.5]dec-8-en-8-amine (single enantiomer 1)] registered a half-inhibitory concentration (IC50) against human TBK1 of more than 20000 nM.
As to `Fc1cc(NC2=NCC3(CCC3)CO2)cc(F)c1Oc1ccnc2[nH]cc(C3(C(F)(F)F)CCC3)c12` [Example 1, N-[3,5-difluoro-4-({3-[1-(trifluoromethyl)cyclobutyl]-1H-pyrrolo[2,3-b]pyridin-4-yl}oxy)phenyl]-6-oxa-8-azaspiro[3.5]non-7-en-7-amine], the IC50 on MAP4K1 was 8.5 nM; against human TBK1, more than 20000 nM; on human ROCK-II, 5600 nM.
Regarding `CC1(C)CN=C(Nc2cc(F)c(Oc3ccnc4[nH]cc(C5(C(F)(F)F)CC5)c34)c(F)c2)OC1` [Example 9, N-[3,5-difluoro-4-({3-[1-(trifluoromethyl)cyclopropyl]-1H-pyrrolo[2,3-b]pyridin-4-yl}oxy)phenyl]-5,5-dimethyl-5,6-dihydro-4H-1,3-oxazin-2-amine], the IC50 against human TBK1 was more than 20000 nM.
In the case of `CC1(C)CN=C(Nc2cc(F)c(Oc3ccnc4[nH]cc(C5(C(F)(F)F)CCC5)c34)c(F)c2)OC1` [Example 4, N-[3,5-difluoro-4-({3-[1-(trifluoromethyl)cyclobutyl]-1H-pyrrolo[2,3-b]pyridin-4-yl}oxy)phenyl]-5,5-dimethyl-5,6-dihydro-4H-1,3-oxazin-2-amine], the IC50 at MAP4K1 is 6.2 nM; on human TBK1 it was more than 20000 nM; at human ROCK-II, 4100 nM.
On to `Fc1cc(NC2=NCC3(CC3)CO2)cc(F)c1Oc1ccnc2[nH]cc(C3(C(F)(F)F)CCC3)c12` [Example 3, N-[3,5-difluoro-4-({3-[1-(trifluoromethyl)cyclobutyl]-1H-pyrrolo[2,3-b]pyridin-4-yl}oxy)phenyl]-5-oxa-7-azaspiro[2.5]oct-6-en-6-amine], for which the IC50 at MAP4K1 was 4 nM; at human TBK1, more than 20000 nM; against human ROCK-II, 1600 nM.
At human TBK1, `Fc1cc(NC2=NCC3(CCOC3)CO2)cc(F)c1Oc1ccnc2[nH]cc(C3(C(F)(F)F)CC3)c12` (single isomer, unassigned; enantiomer 2) [Example 7, N-[3,5-difluoro-4-({3-[1-(trifluoromethyl)cyclopropyl]-1H-pyrrolo[2,3-b]pyridin-4-yl}oxy)phenyl]-2,7-dioxa-9-azaspiro[4.5]dec-8-en-8-amine (single enantiomer 2)] had a half-inhibitory concentration (IC50) of more than 20000 nM.
Consider `Fc1cc(NC2=NCC3(CCC3)CO2)cc(F)c1Oc1ccnc2[nH]cc(C3(C(F)(F)F)CC3)c12` [Example 12, N-[3,5-difluoro-4-({3-[1-(trifluoromethyl)cyclopropyl]-1H-pyrrolo[2,3-b]pyridin-4-yl}oxy)phenyl]-6-oxa-8-azaspiro[3.5]non-7-en-7-amine], for which the IC50 on human TBK1 was more than 20000 nM.
Consider `Fc1cc(NC2=NCC3(COC3)CO2)cc(F)c1Oc1ccnc2[nH]cc(C3(C(F)(F)F)CC3)c12` [Example 8, N-[3,5-difluoro-4-({3-[1-(trifluoromethyl)cyclopropyl]-1H-pyrrolo[2,3-b]pyridin-4-yl}oxy)phenyl]-2,6-dioxa-8-azaspiro[3.5]non-7-en-7-amine], for which the results for the IC50 at MAP4K1, against human TBK1 and against human ROCK-II were 5 nM, more than 20000 nM and 500 nM, respectively.
Regarding `Fc1cc(NC2=NCC3(CCOCC3)CO2)cc(F)c1Oc1ccnc2[nH]cc(C3(C(F)(F)F)CCC3)c12` [Example 2, N-[3,5-difluoro-4-({3-[1-(trifluoromethyl)cyclobutyl]-1H-pyrrolo[2,3-b]pyridin-4-yl}oxy)phenyl]-2,9-dioxa-4-azaspiro[5.5]undec-3-en-3-amine], the IC50 at MAP4K1 is 4.2 nM; against human TBK1 it was more than 20000 nM; against human ROCK-II it was 1900 nM.

Source of the values: patent US20220047603A1, “SUBSTITUTED PYRROLOPYRIDINE-DERIVATIVES” (BAYER AKTIENGESELLSCHAFT, priority 2018, published 2022).
